In brackets after ≈: the same amount, converted by molar mass.
How the values were obtained:
Type in all cases: functional
Acinetobacter baumannii [1] = test: Antimicrobial activity against Acinetobacter baumannii ATCC 17978 assessed as microbial growth inhibition under iron-deficient condition
Salmonella enteritidis = test: Antimicrobial activity against Salmonella enterica subsp. enterica serovar Enteritidis assessed as increase in microbial growth inhibition
Salmonella typhimurium = test: Antimicrobial activity against Salmonella enterica subsp. enterica serovar Typhimurium assessed as increase in microbial growth inhibition
Staphylococcus aureus [2] = test: Antimicrobial activity against vancomycin intermediate Staphylococcus aureus assessed as microbial growth inhibition
Enterococcus faecalis = test: Antimicrobial activity against vancomycin-resistant Enterococcus faecalis ATCC 51575 assessed as microbial growth inhibition
Enterococcus faecium = test: Antimicrobial activity against vancomycin-resistant Enterococcus faecium ATCC 51559 assessed as microbial growth inhibition
Staphylococcus aureus [3] = test: Antimicrobial activity against methicillin-resistant Staphylococcus aureus ATCC 33591 assessed as microbial growth inhibition
Acinetobacter baumannii [4] = test: Antimicrobial activity against Acinetobacter baumannii ATCC BAA 1710 assessed as microbial growth inhibition
Acinetobacter baumannii [5] = test: Antimicrobial activity against Acinetobacter baumannii ARC 3484 assessed as microbial growth inhibition
Acinetobacter baumannii [6] = test: Antimicrobial activity against Acinetobacter baumannii ATCC 17978 assessed as microbial growth inhibition
Acinetobacter baumannii [7] = test: Antimicrobial activity against Acinetobacter baumannii ATCC BAA 1800 assessed as microbial growth inhibition
Acinetobacter baumannii [8] = test: Antimicrobial activity against Acinetobacter baumannii ARC 3486 assessed as microbial growth inhibition
Acinetobacter baumannii [9] = test: Antimicrobial activity against Acinetobacter baumannii ARC 5081 assessed as microbial growth inhibition
Acinetobacter baumannii [10] = test: Antimicrobial activity against Acinetobacter baumannii ARC 5079 assessed as microbial growth inhibition
Acinetobacter baumannii [11] = test: Antimicrobial activity against Acinetobacter baumannii ATCC 17978 pNT221 assessed as microbial growth inhibition
Acinetobacter baumannii [12] = test: Antimicrobial activity against Acinetobacter baumannii ATCC 17978 pNT320 producing cephalosporinase assessed as microbial growth inhibition
Acinetobacter baumannii [13] = test: Antimicrobial activity against Acinetobacter baumannii ATCC 17961 assessed as microbial growth inhibition
Acinetobacter baumannii [14] = test: Antimicrobial activity against Acinetobacter baumannii ATCC BAA 1793 assessed as microbial growth inhibition
Acinetobacter baumannii [15] = test: Antimicrobial activity against Acinetobacter baumannii ATCC 17978 pNT165 producing carbapenamase assessed as microbial growth inhibition
Acinetobacter baumannii [16] = test: Antimicrobial activity against Acinetobacter baumannii ATCC BAA 1797 assessed as microbial growth inhibition
Acinetobacter baumannii [17] = test: Antimicrobial activity against Acinetobacter baumannii ATCC 17978 pNT255 assessed as microbial growth inhibition
Pseudomonas aeruginosa [18] = test: Antibacterial activity against Wild type Pseudomonas aeruginosa KW799 assessed as microbial growth inhibition incubated for 20 hrs in iron depleted media by CLSI protocol based broth microdilution method
Pseudomonas aeruginosa [19] = test: Antibacterial activity against Pseudomonas aeruginosa PAO1 assessed as microbial growth inhibition incubated for 20 hrs in iron depleted media by CLSI protocol based broth microdilution method
Pseudomonas aeruginosa [20] = test: Antibacterial activity against Pseudomonas aeruginosa KW799/61 assessed as microbial growth inhibition incubated for 20 hrs in iron depleted media by CLSI protocol based broth microdilution method
Pseudomonas aeruginosa [21] = test: Antibacterial activity against Pseudomonas aeruginosa Pa4 assessed as microbial growth inhibition incubated for 20 hrs in iron depleted media by CLSI protocol based broth microdilution method

## C[C@H]1OC(c2cccc(O)c2O)=N[C@@H]1C(=O)N[C@@H](COC(=O)c1cccc(O)c1O)C(=O)NCCCCN(O)C(=O)N[C@@H](C(=O)N[C@@H]1C(=O)N2C(C(=O)O)=C(Cl)CS[C@H]12)c1ccccc1
Acinetobacter baumannii [1]
  MIC: 0.5 µg/mL (≈ 0.532 µM)

## CC1(C)S[C@@H]2[C@H](NC(=O)[C@H](NC(=O)CCCc3cn(CCOCCOCCOCCNC(=O)c4cc(O)c(O)c(C(=O)N[C@H]5COC(=O)[C@@H](NC(=O)c6cc([C@@H]7O[C@H](CO)[C@@H](O)[C@H](O)[C@H]7O)cc(O)c6O)COC(=O)[C@@H](NC(=O)c6cc([C@@H]7O[C@H](CO)[C@@H](O)[C@H](O)[C@H]7O)cc(O)c6O)COC5=O)c4)nn3)c3ccccc3)C(=O)N2[C@H]1C(=O)O
Salmonella enteritidis
  MIC: 0.01 µM
Salmonella typhimurium
  MIC: 0.01 µM

## C[C@H]1OC(c2cccc(O)c2O)=N[C@@H]1C(=O)N[C@@H](COC(=O)c1cc(N[C@@H](C(=O)N[C@@H]2C(=O)N3C(C(=O)O)=C(Cl)CS[C@H]23)c2ccccc2)cc(O)c1O)C(=O)NCCCCN(O)C=O
Acinetobacter baumannii [1]
  MIC: 0.5 µg/mL (≈ 0.532 µM)

## CN[C@H](CC(C)C)C(=O)N[C@H]1C(=O)N[C@@H](CC(N)=O)C(=O)N[C@H]2C(=O)N[C@H]3C(=O)N[C@H](C(=O)N[C@H](C(=O)NCCCNC(=O)[C@H](O)[C@@H](O)[C@H](O[C@H]4O[C@@H](CO)[C@@H](O)[C@@H](O)[C@@H]4O)[C@H](O)CO)c4cc(O)cc(O)c4-c4cc3ccc4O)[C@H](O)c3ccc(c(Cl)c3)Oc3cc2cc(c3O[C@@H]2O[C@H](CO)[C@@H](O)[C@H](O)[C@H]2O[C@H]2C[C@](C)(N)[C@H](O)[C@H](C)O2)Oc2ccc(cc2Cl)[C@H]1O
Staphylococcus aureus [2]
  MIC: 0.3 µM (≈ 0.554 µg/mL)
Enterococcus faecalis
  MIC: 30 µM (≈ 55.4 µg/mL)
Enterococcus faecium
  MIC: 36 µM (≈ 66.4 µg/mL)
Staphylococcus aureus [3]
  MIC: 0.4 µM (≈ 0.738 µg/mL)

## CCCCCCCCCCN[C@@]1(C)C[C@H](O[C@H]2[C@H](Oc3c4cc5cc3Oc3ccc(cc3Cl)[C@@H](O)[C@@H](NC(=O)[C@@H](CC(C)C)NC)C(=O)N[C@@H](CC(N)=O)C(=O)N[C@H]5C(=O)N[C@H]3C(=O)N[C@H](C(=O)N[C@H](C(=O)NCCCNC(=O)[C@H](O)[C@@H](O)[C@H](O[C@H]5O[C@@H](CO)[C@@H](O)[C@@H](O)[C@@H]5O)[C@H](O)CO)c5cc(O)cc(O)c5-c5cc3ccc5O)[C@H](O)c3ccc(c(Cl)c3)O4)O[C@H](CO)[C@@H](O)[C@@H]2O)O[C@@H](C)[C@H]1O
Staphylococcus aureus [2]
  MIC: 0.2 µM (≈ 0.397 µg/mL)
Enterococcus faecalis
  MIC: 0.2 µM (≈ 0.397 µg/mL)
Enterococcus faecium
  MIC: 0.2 µM (≈ 0.397 µg/mL)
Staphylococcus aureus [3]
  MIC: 0.2 µM (≈ 0.397 µg/mL)

## CCCCCCCCCC(=O)N[C@@H](Cc1c[nH]c2ccccc12)C(=O)N[C@H](CC(N)=O)C(=O)N[C@@H](CC(=O)O)C(=O)N[C@@H]1C(=O)NCC(=O)N[C@@H](CCCNC(=O)CCCC(=O)N(O)CCCCCNC(=O)CCCN(CCCCNC(=O)c2cccc(O)c2O)CCCNC(=O)c2cccc(O)c2O)C(=O)N[C@@H](CC(=O)O)C(=O)N[C@H](C)C(=O)N[C@@H](CC(=O)O)C(=O)NCC(=O)N[C@H](CO)C(=O)N[C@@H](C(C)CC(=O)O)C(=O)N[C@@H](CC(=O)c2ccccc2N)C(=O)O[C@@H]1C (some centres undefined)
Acinetobacter baumannii [4]
  MIC: 0.2 µM (≈ 0.464 µg/mL)
Acinetobacter baumannii [5]
  MIC: 0.2 µM (≈ 0.464 µg/mL)
Acinetobacter baumannii [6]
  MIC: 0.2 µM (≈ 0.464 µg/mL)
Acinetobacter baumannii [7]
  MIC: 0.2 µM (≈ 0.464 µg/mL)
Acinetobacter baumannii [8]
  MIC: 0.2 µM (≈ 0.464 µg/mL)
Acinetobacter baumannii [9]
  MIC: 0.2 µM (≈ 0.464 µg/mL)
Acinetobacter baumannii [10]
  MIC: 0.2 µM (≈ 0.464 µg/mL)
Acinetobacter baumannii [11]
  MIC: 0.2 µM (≈ 0.464 µg/mL)
Acinetobacter baumannii [12]
  MIC: 0.2 µM (≈ 0.464 µg/mL)
Acinetobacter baumannii [13]
  MIC: 0.2 µM (≈ 0.464 µg/mL)
Acinetobacter baumannii [14]
  MIC: 0.2 µM (≈ 0.464 µg/mL)
Acinetobacter baumannii [15]
  MIC: 0.2 µM (≈ 0.464 µg/mL)
Acinetobacter baumannii [16]
  MIC: 0.2 µM (≈ 0.464 µg/mL)
Acinetobacter baumannii [17]
  MIC: 0.2 µM (≈ 0.464 µg/mL)

## CCCCCCCCCC(=O)N[C@@H](Cc1c[nH]c2ccccc12)C(=O)N[C@H](CC(N)=O)C(=O)N[C@@H](CC(=O)O)C(=O)N[C@@H]1C(=O)NCC(=O)N[C@@H](CCCNC(=O)CN(CCCCNC(=O)c2cccc(O)c2O)C(=O)c2cccc(O)c2O)C(=O)N[C@@H](CC(=O)O)C(=O)N[C@H](C)C(=O)N[C@@H](CC(=O)O)C(=O)NCC(=O)N[C@H](CO)C(=O)N[C@@H](C(C)CC(=O)O)C(=O)N[C@@H](CC(=O)c2ccccc2N)C(=O)O[C@@H]1C (some centres undefined)
Acinetobacter baumannii [4]
  MIC: 0.2 µM (≈ 0.404 µg/mL)
Acinetobacter baumannii [5]
  MIC: 0.2 µM (≈ 0.404 µg/mL)
Acinetobacter baumannii [6]
  MIC: 0.2 µM (≈ 0.404 µg/mL)
Acinetobacter baumannii [7]
  MIC: 0.2 µM (≈ 0.404 µg/mL)
Acinetobacter baumannii [8]
  MIC: 0.2 µM (≈ 0.404 µg/mL)
Acinetobacter baumannii [9]
  MIC: 0.2 µM (≈ 0.404 µg/mL)
Acinetobacter baumannii [10]
  MIC: 0.2 µM (≈ 0.404 µg/mL)
Acinetobacter baumannii [11]
  MIC: 0.2 µM (≈ 0.404 µg/mL)
Acinetobacter baumannii [12]
  MIC: 0.2 µM (≈ 0.404 µg/mL)
Acinetobacter baumannii [13]
  MIC: 0.2 µM (≈ 0.404 µg/mL)
Acinetobacter baumannii [14]
  MIC: 0.2 µM (≈ 0.404 µg/mL)
Acinetobacter baumannii [15]
  MIC: 0.2 µM (≈ 0.404 µg/mL)
Acinetobacter baumannii [16]
  MIC: 0.2 µM (≈ 0.404 µg/mL)
Acinetobacter baumannii [17]
  MIC: 0.2 µM (≈ 0.404 µg/mL)

## CC(=O)Oc1cccc(C(=O)NCCCC(CCCNC(=O)c2cccc(OC(C)=O)c2OC(C)=O)(CCCNC(=O)c2cccc(OC(C)=O)c2OC(C)=O)NC(=O)CCC(=O)NC(C(=O)NC2C(=O)N3C2SC(C)(C)[C@@H]3C(=O)O)c2ccc(O)cc2)c1OC(C)=O (some centres undefined)
Pseudomonas aeruginosa [18]
  MIC: 0.05 µM (≈ 0.0655 µg/mL)
Pseudomonas aeruginosa [19]
  MIC: 0.05 µM (≈ 0.0655 µg/mL)
Pseudomonas aeruginosa [20]
  MIC: 0.05 µM (≈ 0.0655 µg/mL)
Pseudomonas aeruginosa [21]
  MIC: 0.05 µM (≈ 0.0655 µg/mL)
